{"source": "patent US20100234306A1", "about": "“USE OF A PEPTIDE AS A THERAPEUTIC AGENT” (priority 2007, published 2010)", "key": {"[1]": {"test_system": "HIV-1IIIB", "test": "HIV-1 antiviral CPE assay in CEM-SS cells (MTS)", "conditions": "6 days post-infection, peptide 10 micrograms per ml"}, "[2]": {"test_system": "CEM-SS cells", "test": "Cytotoxicity (MTS cell viability) in the HIV-1 assay", "conditions": "MTS, peptide 10 micrograms per ml"}, "[3]": {"test": "Cytotoxicity testing in MRC-5 cells (CellTiter 96)", "assay_type": "cell-based", "conditions": "human, MRC-5 cells (embryonal lung fibroblasts), 6 days incubation, read-out: % Cell viability", "procedure": "For cytotxicity testing, MRC-5 cells were seeded at 2,500 cells/well in 96 well plates using growth medium. […] The following day, peptide was added and tested in duplicates. After a 6 days incubation period, cell viability was measured using CellTiter 96 Solution (Promega). Plates were incubated for additional 4 hours at 37° C."}, "[4]": {"test_system": "Pseudomonas aeruginosa", "test": "Pseudomonas aeruginosa growth inhibition assay", "assay_type": "cell-based", "conditions": "Mueller-Hinton Broth, read visually, peptide 10 micrograms per ml"}, "[5]": {"test_system": "Streptococcus pneumoniae", "test": "Streptococcus pneumoniae growth inhibition assay", "assay_type": "cell-based", "conditions": "Mueller-Hinton Broth, read visually, peptide 10 micrograms per ml"}, "[6]": {"test_system": "MRSA", "conditions": "Mueller-Hinton Broth, read visually, peptide 10 micrograms per ml"}, "[7]": {"test": "in vitro", "conditions": "human"}, "[8]": {"test": "Cytotoxicity (MTS cell viability) in the HIV-1 assay", "conditions": "human, CEM-SS cells"}}, "note": "Where no end group is shown, it is not given here.", "data": [{"molecule": "Cc1cn([C@H]2C[C@H](N=[N+]=[N-])[C@@H](CO)O2)c(=O)[nH]c1=O", "note": "[AZT]", "values": [{"measurement": "% CPE reduction in HIV-1 infected CEM-SS cells", "setting": "[1]", "result": 99, "unit": "%"}, {"measurement": "% Cell viability", "setting": "[2]", "result": 97, "unit": "%"}]}, {"molecule": "MQMKKVLDS-OH [AIP-1]", "values": [{"measurement": "viability at 144 h", "setting": "[3]", "result": 100, "unit": "%"}, {"measurement": "% inhibition", "setting": "[4]", "result": 0.0, "unit": "%"}, {"measurement": "% inhibition", "setting": "[5]", "result": 0.0, "unit": "%"}, {"measurement": "% inhibition", "setting": "[6]", "result": 0.0, "unit": "%"}, {"measurement": "viability at 144 h, 10 micrograms per ml", "setting": "[7]", "result": 100, "unit": "%"}, {"measurement": "viability at 10 micrograms per ml", "setting": "[8]", "result": 100, "unit": "%"}]}, {"molecule": "CC(C)(C)NC(=O)[C@@H]1CN(Cc2cccnc2)CCN1C[C@@H](O)C[C@@H](Cc1ccccc1)C(=O)N[C@H]1c2ccccc2C[C@H]1O", "note": "[Indinavir]", "values": [{"measurement": "% Cell viability", "setting": "[2]", "result": 93, "unit": "%"}]}]}
